# Measurements published in patent US8574578B2, “Antibodies against PDGFRα to inhibit tumor growth” (ImClone LLC, priority 2006, dated 2013).
# Columns and labels:
# [1] = tested on: Akt phosphorylation in PC3-ML cells; assay: Akt phosphorylation in PC3-ML cells (Western blot); type: cell-based, human
# Procedure: Bone marrow samples from normal male donors (ages 18-45) were supplied by Cambrex (Poietics™ Donor Program). Samples were centrifuged at 1,500 rpm in order to separate the soluble and cellular phases. The supernatant was filtered using 0.8 μm and 0.22 μm filters in succession. 50 μl of bone marrow aspirate was administered to cells in 1 ml of medium (1:20 final dilution).
# For experiments performed in the presence of serum, cells were cultured in DMEM supplemented with 10% FBS and 50 μg/ml gentamycin for 24 hours prior to exposure to bone marrow. For experiments in the absence of serum (starved cells), cells were washed twice with PBS, the growth medium was replaced with serum-free DMEM, and the cells were incubated for 4 hours prior to exposure to bone marrow preparations. When used, AG-1296, a specific inhibitor of PDGF receptors (Rice et al., 1999, Amer. J. Path. 155, 213-21) was added to cultures 30 min. prior to exposure to bone marrowaspirate. IMC-3G3 antibodies were administered as described at pre-treatment times as stated below.
# [2] = tested on: SKLMS-1 cells; assay: PDGF-AA-induced Akt and MAPK phosphorylation in SKLMS-1 cells; type: cell-based, human; details: PDGF-AA stimulation of SKLMS-1 cells
# Procedure: (§1) Cells were seeded in six-well Falcon tissue culture plates (250,000 cells per well) and allowed to grow overnight. Wells were then rinsed and incubated in serum-free medium. After an overnight incubation to render cells quiescent, the cells were treated with antibodies for 30 minutes at 37° C. followed by addition of PDGF-AA or PDGF-BB and incubation for an additional 10 minutes at 37° C. Cells were then detached and lysed in 200 μL lysis buffer (50 mmol/L Tris-HCl (pH 8.0), 1% Triton X-100, 150 mmol/L NaCl, 1 mmol/L EDTA, 0.1% SDS, 1 mmol/L sodium orthovanadate, and protease inhibitors (Complete Mini, Roche, Mannheim, Germany)). Cell lysates were analyzed by SDS-PAGE and Western blotting using enhanced chemiluminescence reagents and Hyperfilm (Amersham Biosciences).
# (§2) Human tumor cell lines expressing PDGFRα were tested to determine the affects of the human anti-PDGFRα antibody on malignant growth in in vitro and in vivo systems. Two such tumor cell lines that express PDGFRα as determined by flow cytometry are SKLMS-1 (leiomyosarcoma) and U118 (glioblastoma). These cell lines also respond to ligand in mitogenic assays and form tumors in mice. SKLMS-1 has the potential for not only paracrine but also autocrine stimulation.
# [3] = tested on: U118 cells; assay: PDGF-AA-induced downstream-effector phosphorylation in U118 cells; type: cell-based, human
# Procedure: as §1, §2
# [4] = tested on: U118 cells; assay: PDGF-stimulated [3H]thymidine incorporation in U118 cells; type: cell-based, human; details: at 66 nmol/L
# Procedure: (§3) The ant-PDGFRα monoclonal antibody was tested for its ability to block PDGFAA-induced mitogenesis of PAE Rα cells. Cells were seeded in 96-well tissue culture plates (1×10^4 cells per well) and grown overnight in 100 μL medium per well. The wells were then rinsed with serum-free medium and cells were serum starved overnight with 75 μL serum-free medium added to each well. IgG was added (25 μL/well) and the plates were incubated for 30 minutes at 37° C. PDGF-AA or PDGF-BB (25 μL/well) was then added and plates were incubated for 18 to 20 hours at 37° C. Plates were incubated for an additional 4 hours after each well received 0.25 μCi [^3H]thymidine (25 μL/well). Antibody, PDGF, and [^3H]thymidine were all diluted in serum-free medium. Cells were then washed with PBS plus 1% bovine serum albumin and detached by treatment with trypsin (100 μL/well). […] After processing the filter, DNA incorporated radioactivity was determined on a scintillation counter (Wallac Microbeta, model 1450).
# (§4) Human tumor cell lines expressing PDGFRα were tested to determine the affects of the human anti-PDGFRα antibody on malignant growth in in vitro and in vivo systems. Two such tumor cell lines that express PDGFRα as determined by flow cytometry are SKLMS-1 (leiomyosarcoma) and U118 (glioblastoma). […]
# [5] = tested on: SKLMS-1 cells; assay: PDGF-stimulated [3H]thymidine incorporation in SKLMS-1 cells; type: cell-based, human
# Procedure: as §3, §4
# [6] = tested on: glioblastoma (U118) xenograft; assay: U118 glioblastoma s.c. xenograft growth; type: in vivo, athymic nude mice
# Source text: (§5) S.c. tumor xenografts were established by injecting 10×10^6 SKLMS-1 or U118 cells mixed in Matrigel (Collaborative Research Biochemicals, Bedford, Mass.) into female athymic nude mice (Crl:NU/NU-nuBR, Charles River Laboratories, Wilmington, Mass.). Tumors were allowed to reach a mean tumor volume (π/6×longest length×perpendicular width^2) of about 400 mm^3. The mice were randomized into five groups (n=12) and treated by i.p. injection twice weekly for the duration of the study. Group 1 mice were treated with vehicle control (0.9% NaCl, USP for Irrigation, B/Braun). Groups 2 to 4 mice were treated with 6, 20, and 60 mg/kg of the instant anti-PDGFRα antibody. Group 5 mice were treated with 60 mg/kg human IgG (Sigma). Groups treated with 6, 20, or 60 mg/kg anti-PDGFRα antibody or human IgG were given 21.4, 71.4, and 214 mg/kg loading doses, respectively. The loading doses were calculated to achieve a steady state plasma concentration from the first dose (elimination half-life, 7 days) using a dosing regimen of twice weekly. Tumor volumes were evaluated twice weekly and tumor growth in the treatment groups was compared with a repeated measures ANOVA.
# (§6) Resected tumors were fixed in QDL fixative at 4° C. for 24 hours. After paraffin embedding and sectioning at 4 μm, formalin-fixed sections were stained with Mayer's H&E (Richard Allen, Kalamazoo, Mich.).
# [7] = tested on: leiomyosarcoma (SKLMS-1) xenograft; assay: SKLMS-1 leiomyosarcoma s.c. xenograft growth; type: in vivo, athymic nude mice
# Source text: as §5, §6
# [8] = Elimination half-life used for loading dose calculation; parameters: species or system mice; details: mouse, in vivo
# Source text: as §5
# [9] = target: T1, PDGFRα (Homo sapiens, UniProt P16234); assay: Ligand-induced PDGFRα tyrosine phosphorylation in PAE Rα cells; type: cell-based, porcine aortic endothelial cells stably expressing PDGFRα; parameters: expressed in transfected cells; host or cells: porcine aortic endothelial cells (PAE Rα)
# Procedure: as §1
# [10] = target: T1, PDGFRα; assay: PDGFRα phosphotyrosine level in U118 tumors in vivo; parameters: Two such tumor cell lines that express PDGFRα as determined by flow cytometry are SKLMS-1 (leiomyosarcoma) and U118 (glioblastoma); endogenous in cells; host or cells: U118 human glioblastoma cells grown as s.c. xenograft tumors in athymic nude mice; species or system mice with U118 tumors; details: 214 mg/kg loading dose, 60 mg/kg 72 hours later; harvested at 168 hours; relative to human IgG control
# Procedure: The level of receptor phosphotyrosine in U118 tumors was evaluated one week after treatment with anti-PDGFRα antibody or human IgGt. Mice with established U118 tumors (500 mm^3) were treated with a 214 mg/kg loading dose followed 72 hours later by a 60 mg/kg maintenance dose of antibody. Tumors were harvested from mice one week (168 hours) after the first antibody injection (at a time before tumor regression is observed on average; see FIG. 18A) and homogenized in phosphorylation assay lysis buffer (see above). The lysates were centrifuged twice at 14,000 rpm and the protein concentration for the collected supernatant was determined (Bio-Rad protein assay, Bio-Rad, Hercules, Calif.). Lysate (4 mg) from each sample was immunoprecipitation using anti-PDGFRα antibody. Immunoprecipitated human PDGFRα was then immunoblotted with either an anti-PDGFR or anti-phosphotyrosine antibody.
# T1 sequence (P16234 24-1089): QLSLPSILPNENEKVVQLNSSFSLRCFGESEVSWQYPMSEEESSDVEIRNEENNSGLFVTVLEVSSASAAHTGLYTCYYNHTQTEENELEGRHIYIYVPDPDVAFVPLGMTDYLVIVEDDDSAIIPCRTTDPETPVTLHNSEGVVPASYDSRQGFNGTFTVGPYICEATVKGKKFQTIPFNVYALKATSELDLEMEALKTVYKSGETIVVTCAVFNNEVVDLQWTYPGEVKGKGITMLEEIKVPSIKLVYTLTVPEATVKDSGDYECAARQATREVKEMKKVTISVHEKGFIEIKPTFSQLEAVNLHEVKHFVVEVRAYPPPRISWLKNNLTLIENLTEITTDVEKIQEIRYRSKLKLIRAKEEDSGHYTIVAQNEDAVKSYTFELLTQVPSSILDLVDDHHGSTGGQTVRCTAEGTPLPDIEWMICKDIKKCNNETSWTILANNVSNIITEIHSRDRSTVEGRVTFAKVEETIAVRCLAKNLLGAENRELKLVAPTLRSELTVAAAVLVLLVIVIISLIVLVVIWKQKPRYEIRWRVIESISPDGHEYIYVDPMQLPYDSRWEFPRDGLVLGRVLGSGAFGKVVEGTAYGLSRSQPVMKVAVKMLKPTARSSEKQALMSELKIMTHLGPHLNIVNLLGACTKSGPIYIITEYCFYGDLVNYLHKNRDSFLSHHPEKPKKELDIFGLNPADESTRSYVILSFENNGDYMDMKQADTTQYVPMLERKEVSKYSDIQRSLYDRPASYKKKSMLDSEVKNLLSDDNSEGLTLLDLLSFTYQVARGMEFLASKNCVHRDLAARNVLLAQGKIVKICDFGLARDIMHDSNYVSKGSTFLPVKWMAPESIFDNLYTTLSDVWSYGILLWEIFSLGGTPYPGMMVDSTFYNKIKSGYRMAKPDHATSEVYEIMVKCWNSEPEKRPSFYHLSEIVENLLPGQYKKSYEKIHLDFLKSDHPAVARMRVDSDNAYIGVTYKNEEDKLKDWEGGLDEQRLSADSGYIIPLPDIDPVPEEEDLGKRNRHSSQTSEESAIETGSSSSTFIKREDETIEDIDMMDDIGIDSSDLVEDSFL
substance,measurement,setting,value
"IMC-3G3: human anti-PDGFRα monoclonal antibody; heavy chain variable region SEQ ID NO:8, light chain variable region SEQ ID NO:16",effect on PDGF-BB stimulated Akt phosphorylation,"[1]; 20 μg/ml, pre-incubation 30 minutes, 30 ng/ml PDGF-BB",neutralized
same,inhibition of bone marrow induced Akt phosphorylation,[1]; 30-minute incubation time,about 40%
same,"inhibitory effect on Akt phosphorylation, 120-minute vs 30-minute preincubation",[1]; bone marrow induced,significantly more effective
same,inhibition of Akt phosphorylation,[2],100%
same,inhibition of MAPKs phosphorylation,[2],about 80%
same,inhibition of phosphorylation in U118 cells,[3],effective inhibitor of phosphorylation
same,inhibition of PDGF-BB-stimulated mitogenic response,[4],40%
same,PDGF-BB-stimulated mitogenic response,[5],inhibited
same,tumor regression,[6]; 6 mg/kg,4 of 12
same,% T/C at end of study,[6]; 6 mg/kg i.p. twice weekly,67%
same,tumor regression,[6]; 20 mg/kg,5 of 11
same,% T/C at end of study,[6]; 20 mg/kg i.p. twice weekly,63%
same,tumor regression,[6]; 60 mg/kg,10 of 12
same,% T/C at end of study,[6]; 60 mg/kg i.p. twice weekly,35%
same,histologic examination of xenografts,"[6]; 60 mg/kg, compared with saline-control group",fewer viable tumor cells
same,final % TIC,[7]; 6 mg/kg i.p. twice weekly,66%
same,final % TIC,[7]; 20 mg/kg i.p. twice weekly,57%
same,final % TIC,[7]; 60 mg/kg i.p. twice weekly,31%
same,tumor regressions,"[7]; 6, 20 and 60 mg/kg",no tumor regressions
same,histologic examination of xenografts,"[7]; day 25, compared with saline-control group",reduction in the amount of viable tumor cells and cellular packing
same,elimination half-life,[8],170 h
same,PDGF-BB-induced receptor phosphorylation,[9],near background levels
same,IC50,[9]; read-out: concentration for 50% inhibition of PDGFRα phosphorylation,0.25 nM
same,level of PDGFRα phosphotyrosine in U118 tumors,[10],reduction in the level of PDGFRα phosphotyrosine
